Measurements: ChEMBL document CHEMBL1201862, “PubChem BioAssay data set” (2004)
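These data come from cells grown in 96-well plates and exposed to compound for 48 hours at five concentrations. GI50 = concentration required for 50% inhibition of growth.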 The source made the active and inactive calls. Cut-off read from the data, not from the text of the source: active = GI50 up to about 1.1 µM and inactive = higher.

Legend:
Assay in all cases: NCI anticancer screen, dose series, 48 h
M14 = test system: M14
ACHN = test system: ACHN
SF-268 = test system: SF-268
SN12C = test system: SN12C
UO-31 = test system: UO-31
DLD-1 = test system: DLD-1
K562 = test system: K562
KM12 = test system: KM12
U-251 = test system: U-251
XF498 = test system: XF498
KM-20L2 = test system: KM-20L2
A549 = test system: A549
DMS-114 = test system: DMS-114
CCRF-CEM = test system: CCRF-CEM
SK-MEL-2 = test system: SK-MEL-2
NCI-H23 = test system: NCI-H23
HL-60 = test system: HL-60
NCI-H460 = test system: NCI-H460
LOX IMVI = test system: LOX IMVI
OVCAR-3 = test system: OVCAR-3
DMS-273 = test system: DMS-273
SR = test system: SR
Malme-3M = test system: Malme-3M
HCT-116 = test system: HCT-116
MOLT-4 = test system: MOLT-4
SNB-75 = test system: SNB-75
IGROV-1 = test system: IGROV-1
SK-OV-3 = test system: SK-OV-3
SNB-19 = test system: SNB-19
HOP-62 = test system: HOP-62
M19-MEL = test system: M19-MEL
EKVX = test system: EKVX
NCI-H226 = test system: NCI-H226
RXF 393 = test system: RXF 393
NCI-H522 = test system: NCI-H522
CAKI-1 = test system: CAKI-1
SF-539 = test system: SF-539
SF-295 = test system: SF-295
HCC 2998 = test system: HCC 2998
SK-MEL-5 = test system: SK-MEL-5
RPMI-8226 = test system: RPMI-8226
HCT-15 = test system: HCT-15
SW-620 = test system: SW-620
COLO 205 = test system: COLO 205
SNB-78 = test system: SNB-78
TK-10 = test system: TK-10
SK-MEL-28 = test system: SK-MEL-28
HOP-92 = test system: HOP-92
HT-29 = test system: HT-29
A498 = test system: A498
OVCAR-5 = test system: OVCAR-5
OVCAR-4 = test system: OVCAR-4
LXFL 529 = test system: LXFL 529
786-0 = test system: 786-0

O=c1[nH]n2c(=O)cc[nH]c2c1-c1nnns1
GI50 (M14): > 100 µM (inactive)
GI50 (ACHN): > 100 µM (inactive)
GI50 (SF-268): > 100 µM (inactive)
GI50 (SN12C): > 100 µM (inactive)
GI50 (UO-31): > 100 µM (inactive)
GI50 (DLD-1): > 100 µM (inactive)
GI50 (K562): > 100 µM (inactive)
GI50 (KM12): > 100 µM (inactive)
GI50 (U-251): > 100 µM (inactive)
GI50 (XF498): > 100 µM (inactive)
GI50 (KM-20L2): > 100 µM (inactive)
GI50 (A549): > 100 µM (inactive)
GI50 (DMS-114): > 100 µM (inactive)
GI50 (CCRF-CEM): > 100 µM (inactive)
GI50 (SK-MEL-2): > 100 µM (inactive)
GI50 (NCI-H23): > 100 µM (inactive)
GI50 (HL-60): > 100 µM (inactive)
GI50 (NCI-H460): > 100 µM (inactive)
GI50 (LOX IMVI): > 100 µM (inactive)
GI50 (OVCAR-3): > 100 µM (inactive)
GI50 (DMS-273): > 100 µM (inactive)
GI50 (SR): > 100 µM (inactive)
GI50 (Malme-3M): > 100 µM (inactive)
GI50 (HCT-116): > 100 µM (inactive)
GI50 (MOLT-4): > 100 µM (inactive)
GI50 (SNB-75): > 100 µM (inactive)
GI50 (IGROV-1): > 100 µM (inactive)
GI50 (SK-OV-3): > 100 µM (inactive)
GI50 (SNB-19): > 100 µM (inactive)
GI50 (HOP-62): > 100 µM (inactive)
GI50 (M19-MEL): > 100 µM (inactive)
GI50 (EKVX): > 100 µM (inactive)
GI50 (NCI-H226): > 100 µM (inactive)
GI50 (RXF 393): > 100 µM (inactive)
GI50 (NCI-H522): > 100 µM (inactive)
GI50 (CAKI-1): > 100 µM (inactive)
GI50 (SF-539): > 100 µM (inactive)
GI50 (SF-295): > 100 µM (inactive)
GI50 (HCC 2998): > 100 µM (inactive)
GI50 (SK-MEL-5): > 100 µM (inactive)
GI50 (RPMI-8226): > 100 µM (inactive)
GI50 (HCT-15): > 100 µM
GI50 (SW-620): > 100 µM (inactive)
GI50 (COLO 205): > 100 µM (inactive)
GI50 (SNB-78): > 100 µM (inactive)
GI50 (TK-10): > 100 µM (inactive)
GI50 (SK-MEL-28): > 100 µM (inactive)
GI50 (HOP-92): > 100 µM (inactive)
GI50 (HT-29): > 100 µM (inactive)
GI50 (A498): > 100 µM (inactive)
GI50 (OVCAR-5): > 100 µM (inactive)
GI50 (OVCAR-4): > 100 µM (inactive)
GI50 (LXFL 529): > 100 µM (inactive)
GI50 (786-0): > 100 µM (inactive)
